# Source: patent US12351556B2, “Pyridin-2(1H)one derivatives, their preparation and their use for the treatment of pain” (INSTITUT NATIONAL DE LA SANTE ET DE LA RECHERCHE MEDICALE …, priority 2019, dated 2025)
# Legend:
# CK1δ = CK1δ (Homo sapiens (Human), UniProt P48730); assay: ICKP protein kinase panel screening; type: biochemical; details: duplicate assays, read-out: mean % residual activity
# Description: (§1) FIG. 3 illustrates the human kinome. Compound 69 was evaluated at the International Center For Kinase Profiling (ICKP, Dundee, Scotland) toward a panel of 50 protein kinases that provide a representative sampling of the human kinome. The results were expressed as the mean percentage of residual activity at 10 μM concentration (duplicate assays). Small disks: ≥65%, larger disk: 19%. The black square indicates the kinome region containing protein kinases evaluated in a second screening (FIG. 4, Table 4). The tree was generated using the Kinome Render software, and the illustration reproduced courtesy of Cell Signaling Technology, Inc. (www.cellsignal.com) Chartier et al PeerJ 2013, 1:e126.
# (§2) Results are expressed as the mean percentage of residual activity at 10 μM (Table 3) or 1 μM (Table 4). They are illustrated on FIGS. 3 and 4.
# (§3) Studies were undertaken to identify the possible biological target(s) of compound 69. The activation in neurons of PK such as PKCγ, ERK or p38 MAPK can contribute to pain hypersensitivity. Therefore, it was decided to screen compound 69 toward a panel of 50 PKs that provide a representative sampling of the human kinome (FIG. 3, Table 3) (Biochem. J. 2007, 408, 297-315). In this panel, p38α MAPK was identified as the privileged target, with 19% of kinase residual activity at 10 μM compound concentration.
# Lck = Lck (Homo sapiens (Human), UniProt P06239); assay: ICKP protein kinase panel screening; type: biochemical; details: duplicate assays, read-out: mean % residual activity
# Description: as §1, §2, §3
# TBK1 = TBK1 (Homo sapiens (Human), UniProt Q9UHD2); assay: ICKP protein kinase panel screening; type: biochemical; details: duplicate assays, read-out: mean % residual activity
# Description: as §1, §2, §3
# VEG-FR = VEG-FR (Homo sapiens (Human), UniProt P17948); assay: ICKP protein kinase panel screening; type: biochemical; details: duplicate assays, read-out: mean % residual activity
# Description: as §1, §2, §3
# EF2K = EF2K (Homo sapiens (Human), UniProt O00418); assay: ICKP protein kinase panel screening; type: biochemical; details: duplicate assays, read-out: mean % residual activity
# Description: as §1, §2, §3
# NEK6 = NEK6 (Homo sapiens (Human), UniProt Q9HC98); assay: ICKP protein kinase panel screening; type: biochemical; details: duplicate assays, read-out: mean % residual activity
# Description: as §1, §2, §3
# CAMK1 = CAMK1 (Homo sapiens (Human), UniProt Q14012); assay: ICKP protein kinase panel screening; type: biochemical; details: duplicate assays, read-out: mean % residual activity
# Chain of CAMK1 (Q14012 whole entry): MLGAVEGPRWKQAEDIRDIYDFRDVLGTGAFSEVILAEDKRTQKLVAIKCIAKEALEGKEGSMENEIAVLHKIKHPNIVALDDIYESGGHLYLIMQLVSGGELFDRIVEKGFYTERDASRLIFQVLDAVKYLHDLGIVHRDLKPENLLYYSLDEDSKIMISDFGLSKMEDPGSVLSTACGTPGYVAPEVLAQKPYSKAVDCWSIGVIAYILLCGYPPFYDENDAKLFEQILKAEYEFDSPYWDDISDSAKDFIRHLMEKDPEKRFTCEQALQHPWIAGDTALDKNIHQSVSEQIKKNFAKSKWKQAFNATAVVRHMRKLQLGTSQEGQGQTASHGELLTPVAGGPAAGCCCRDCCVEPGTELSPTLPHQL
# Description: as §1, §2, §3
# HIPK2 = HIPK2 (Homo sapiens (Human), UniProt Q9H2X6); assay: ICKP protein kinase panel screening; type: biochemical; details: duplicate assays, read-out: mean % residual activity
# Chain of HIPK2 (Q9H2X6 whole entry): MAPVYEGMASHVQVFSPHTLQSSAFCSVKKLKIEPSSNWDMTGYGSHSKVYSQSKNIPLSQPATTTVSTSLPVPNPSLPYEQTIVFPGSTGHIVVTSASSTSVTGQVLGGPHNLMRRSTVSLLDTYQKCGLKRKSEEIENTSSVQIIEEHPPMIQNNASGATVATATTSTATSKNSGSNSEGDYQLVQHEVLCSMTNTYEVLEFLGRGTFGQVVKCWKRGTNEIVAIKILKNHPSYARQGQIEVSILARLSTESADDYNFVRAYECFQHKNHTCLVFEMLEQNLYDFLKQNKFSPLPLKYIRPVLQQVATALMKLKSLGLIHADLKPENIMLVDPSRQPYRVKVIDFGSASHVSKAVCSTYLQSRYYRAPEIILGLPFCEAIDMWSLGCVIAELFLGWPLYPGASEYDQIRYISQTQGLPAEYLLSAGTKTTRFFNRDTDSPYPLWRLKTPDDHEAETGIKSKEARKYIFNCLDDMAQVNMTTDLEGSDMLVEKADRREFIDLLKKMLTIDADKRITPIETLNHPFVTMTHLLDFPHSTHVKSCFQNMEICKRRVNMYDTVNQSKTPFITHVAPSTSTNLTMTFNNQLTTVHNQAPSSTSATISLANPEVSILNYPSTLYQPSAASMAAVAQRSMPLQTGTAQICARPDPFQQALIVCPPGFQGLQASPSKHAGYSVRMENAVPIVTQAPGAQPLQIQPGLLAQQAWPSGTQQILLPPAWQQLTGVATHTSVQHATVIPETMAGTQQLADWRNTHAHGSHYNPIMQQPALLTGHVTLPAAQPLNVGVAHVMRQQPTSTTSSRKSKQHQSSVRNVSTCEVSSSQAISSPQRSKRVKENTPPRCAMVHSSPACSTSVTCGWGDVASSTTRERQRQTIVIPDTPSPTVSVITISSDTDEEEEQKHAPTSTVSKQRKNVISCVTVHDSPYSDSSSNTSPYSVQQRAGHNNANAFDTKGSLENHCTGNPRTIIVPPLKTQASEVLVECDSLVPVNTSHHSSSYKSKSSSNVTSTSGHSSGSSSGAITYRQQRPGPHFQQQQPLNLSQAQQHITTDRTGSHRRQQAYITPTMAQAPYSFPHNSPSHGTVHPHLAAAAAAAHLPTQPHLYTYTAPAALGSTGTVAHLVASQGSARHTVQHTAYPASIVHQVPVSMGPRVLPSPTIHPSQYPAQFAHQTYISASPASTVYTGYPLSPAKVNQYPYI
# Description: as §1, §2, §3
# SGK1 = SGK1 (Homo sapiens (Human), UniProt O00141); assay: ICKP protein kinase panel screening; type: biochemical; details: duplicate assays, read-out: mean % residual activity
# Description: as §1, §2, §3
# S6K1 = S6K1 (Homo sapiens (Human), UniProt P23443); assay: ICKP protein kinase panel screening; type: biochemical; details: duplicate assays, read-out: mean % residual activity
# Description: as §1, §2, §3
# SYK = SYK (Homo sapiens (Human), UniProt P43405); assay: ICKP protein kinase panel screening; type: biochemical; details: duplicate assays, read-out: mean % residual activity
# Description: as §1, §2, §3
# MLK3 = MLK3 (Homo sapiens (Human), UniProt Q16584); assay: ICKP protein kinase panel screening; type: biochemical; details: duplicate assays, read-out: mean % residual activity
# Description: as §1, §2, §3
# GSK3b = GSK3b (Homo sapiens (Human), UniProt P49841); assay: ICKP protein kinase panel screening; type: biochemical; details: duplicate assays, read-out: mean % residual activity
# Description: as §1, §2, §3
# LKB1 = LKB1 (Homo sapiens (Human), UniProt Q15831); assay: ICKP protein kinase panel screening; type: biochemical; details: duplicate assays, read-out: mean % residual activity
# Chain of LKB1 (Q15831 whole entry): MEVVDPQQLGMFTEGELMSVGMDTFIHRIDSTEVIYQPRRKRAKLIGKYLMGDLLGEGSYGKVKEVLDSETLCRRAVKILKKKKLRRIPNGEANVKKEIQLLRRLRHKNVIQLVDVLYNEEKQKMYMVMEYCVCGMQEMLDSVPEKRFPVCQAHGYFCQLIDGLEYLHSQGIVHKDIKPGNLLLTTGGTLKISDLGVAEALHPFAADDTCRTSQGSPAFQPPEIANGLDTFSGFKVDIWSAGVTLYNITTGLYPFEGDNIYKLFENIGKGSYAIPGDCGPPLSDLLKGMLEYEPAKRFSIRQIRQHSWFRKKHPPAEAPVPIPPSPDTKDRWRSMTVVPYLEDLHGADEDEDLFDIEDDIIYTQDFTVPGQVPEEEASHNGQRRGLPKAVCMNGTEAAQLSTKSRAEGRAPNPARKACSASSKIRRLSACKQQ
# Chain of LKB1 (Q7RTN6 whole entry partner): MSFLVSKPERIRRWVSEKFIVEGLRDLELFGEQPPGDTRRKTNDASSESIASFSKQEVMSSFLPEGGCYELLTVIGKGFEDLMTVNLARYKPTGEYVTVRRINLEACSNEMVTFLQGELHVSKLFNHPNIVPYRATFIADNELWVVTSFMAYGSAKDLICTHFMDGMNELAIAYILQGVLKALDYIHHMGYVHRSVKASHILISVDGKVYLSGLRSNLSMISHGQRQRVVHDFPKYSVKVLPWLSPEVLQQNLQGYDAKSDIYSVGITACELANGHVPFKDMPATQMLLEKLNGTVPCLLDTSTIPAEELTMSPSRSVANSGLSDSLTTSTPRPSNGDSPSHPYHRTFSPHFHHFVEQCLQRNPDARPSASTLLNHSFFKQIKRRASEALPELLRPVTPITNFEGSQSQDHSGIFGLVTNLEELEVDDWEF
# Chain of LKB1 (Q9Y376 whole entry partner): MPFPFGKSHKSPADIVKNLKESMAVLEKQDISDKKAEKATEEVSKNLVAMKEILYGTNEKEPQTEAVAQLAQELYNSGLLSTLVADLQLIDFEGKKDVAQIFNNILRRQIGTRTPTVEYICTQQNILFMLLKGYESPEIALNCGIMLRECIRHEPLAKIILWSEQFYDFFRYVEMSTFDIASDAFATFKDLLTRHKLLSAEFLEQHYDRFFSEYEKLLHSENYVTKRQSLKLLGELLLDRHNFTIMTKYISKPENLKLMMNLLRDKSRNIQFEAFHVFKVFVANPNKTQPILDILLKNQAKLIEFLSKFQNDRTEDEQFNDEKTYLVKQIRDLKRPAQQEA
# Description: as §1, §2, §3
# EPH-A2 = EPH-A2 (Homo sapiens (Human), UniProt P29317); assay: ICKP protein kinase panel screening; type: biochemical; details: duplicate assays, read-out: mean % residual activity
# Chain of EPH-A2 (P29317 24-976): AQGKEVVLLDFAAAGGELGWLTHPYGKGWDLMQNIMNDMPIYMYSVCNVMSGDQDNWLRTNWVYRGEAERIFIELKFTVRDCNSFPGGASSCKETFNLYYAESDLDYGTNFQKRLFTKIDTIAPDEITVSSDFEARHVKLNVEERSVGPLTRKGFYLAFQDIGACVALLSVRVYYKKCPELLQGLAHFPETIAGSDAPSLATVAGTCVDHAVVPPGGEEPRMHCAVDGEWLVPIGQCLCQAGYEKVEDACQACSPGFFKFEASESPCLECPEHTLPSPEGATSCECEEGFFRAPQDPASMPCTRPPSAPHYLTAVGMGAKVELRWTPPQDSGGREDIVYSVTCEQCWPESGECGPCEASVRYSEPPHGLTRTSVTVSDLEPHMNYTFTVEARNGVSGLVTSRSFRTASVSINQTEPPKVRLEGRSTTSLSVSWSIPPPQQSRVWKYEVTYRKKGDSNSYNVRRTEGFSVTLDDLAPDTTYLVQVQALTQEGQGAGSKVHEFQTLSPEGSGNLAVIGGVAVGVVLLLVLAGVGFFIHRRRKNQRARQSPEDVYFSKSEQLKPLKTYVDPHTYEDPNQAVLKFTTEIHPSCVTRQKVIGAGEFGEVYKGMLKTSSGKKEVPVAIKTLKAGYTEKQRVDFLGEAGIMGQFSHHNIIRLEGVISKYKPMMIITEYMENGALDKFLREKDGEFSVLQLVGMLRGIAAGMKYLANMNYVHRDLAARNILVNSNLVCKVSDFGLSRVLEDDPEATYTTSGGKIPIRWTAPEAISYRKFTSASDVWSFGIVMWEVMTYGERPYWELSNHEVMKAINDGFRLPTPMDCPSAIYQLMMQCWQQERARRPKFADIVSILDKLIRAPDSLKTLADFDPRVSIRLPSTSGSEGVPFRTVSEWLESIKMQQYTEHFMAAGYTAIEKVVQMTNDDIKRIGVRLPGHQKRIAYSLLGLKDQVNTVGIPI
# Description: as §1, §2, §3
# BTK = BTK (Homo sapiens (Human), UniProt Q06187); assay: ICKP protein kinase panel screening; type: biochemical; details: duplicate assays, read-out: mean % residual activity
# Description: as §1, §2, §3
# HER4 = HER4 (Homo sapiens (Human), UniProt Q15303); assay: ICKP protein kinase panel screening; type: biochemical; details: duplicate assays, read-out: mean % residual activity
# Description: as §1, §2, §3
# CDK2-Cyclin A = CDK2-Cyclin A (Homo sapiens (Human), UniProt P24941); assay: ICKP protein kinase panel screening; type: biochemical; details: duplicate assays, read-out: mean % residual activity
# Description: (§4) FIG. 4 illustrates the studies carried out for compounds 67 and 69. Compounds 67 and 69 (FIG. 4B) were evaluated at the International Center For Kinase Profiling (ICKP, Dundee, Scotland) toward a panel of 13 protein kinases. The results (FIG. 4A) were expressed as the mean percentage of residual activity at 1 μM concentration (duplicate assays). Small disks: ≥90%, larger disk: 59%, for both compounds. The tree was generated using the Kinome Render software, and the illustration reproduced courtesy of Cell Signaling Technology, Inc. (www.cellsignal.com) Chartier et al PeerJ 2013, 1:e126.
# as §2
# (§5) The selectivity of compound 69 was evaluated at 1 μM toward another panel containing all four p38 MAPK isoforms, ERK1, ERK2 as well as other protein kinases close to p38α MAPK in the kinome phylogenetic tree (FIG. 4, Table 4). […] Its IC50 toward p38α MAPK was determined, showing a value in the micromolar range (IC50=3.0±0.1 μM).
# ERK1 = ERK1 (Homo sapiens (Human), UniProt P27361); assay: ICKP protein kinase panel screening; type: biochemical; details: duplicate assays, read-out: mean % residual activity
# Description: as §4, §2, §5
# ERK8 = ERK8 (Homo sapiens (Human), UniProt Q8TD08); assay: ICKP protein kinase panel screening; type: biochemical; details: duplicate assays, read-out: mean % residual activity
# Description: as §4, §2, §5
# JNK2 = JNK2 (Homo sapiens (Human), UniProt P45984); assay: ICKP protein kinase panel screening; type: biochemical; details: duplicate assays, read-out: mean % residual activity
# Chain of JNK2 (P45984 whole entry): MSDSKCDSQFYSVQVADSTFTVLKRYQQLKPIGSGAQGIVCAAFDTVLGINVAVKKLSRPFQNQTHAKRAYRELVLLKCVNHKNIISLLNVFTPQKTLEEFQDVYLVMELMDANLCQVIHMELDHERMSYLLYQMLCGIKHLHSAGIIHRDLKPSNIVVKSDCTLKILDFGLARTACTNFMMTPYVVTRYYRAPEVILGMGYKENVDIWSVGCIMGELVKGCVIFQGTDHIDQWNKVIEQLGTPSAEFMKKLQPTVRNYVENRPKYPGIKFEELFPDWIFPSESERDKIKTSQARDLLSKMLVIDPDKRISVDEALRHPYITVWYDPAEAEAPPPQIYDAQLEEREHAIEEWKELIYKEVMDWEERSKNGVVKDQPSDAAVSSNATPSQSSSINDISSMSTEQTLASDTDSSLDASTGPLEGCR
# Description: as §4, §2, §5
# ERK2 = ERK2 (Homo sapiens (Human), UniProt P28482); assay: ICKP protein kinase panel screening; type: biochemical; details: duplicate assays, read-out: mean % residual activity
# Description: as §4, §2, §5
# p38g MAPK = p38g MAPK (Homo sapiens (Human), UniProt P53778); assay: ICKP protein kinase panel screening; type: biochemical; details: duplicate assays, read-out: mean % residual activity
# Description: as §4, §2, §5
# ERK5 = ERK5 (Homo sapiens (Human), UniProt Q13164); assay: ICKP protein kinase panel screening; type: biochemical; details: duplicate assays, read-out: mean % residual activity
# Description: as §4, §2, §5
# p38d MAPK = p38d MAPK (Homo sapiens (Human), UniProt O15264); assay: ICKP protein kinase panel screening; type: biochemical; details: duplicate assays, read-out: mean % residual activity
# Chain of p38d MAPK (O15264 whole entry): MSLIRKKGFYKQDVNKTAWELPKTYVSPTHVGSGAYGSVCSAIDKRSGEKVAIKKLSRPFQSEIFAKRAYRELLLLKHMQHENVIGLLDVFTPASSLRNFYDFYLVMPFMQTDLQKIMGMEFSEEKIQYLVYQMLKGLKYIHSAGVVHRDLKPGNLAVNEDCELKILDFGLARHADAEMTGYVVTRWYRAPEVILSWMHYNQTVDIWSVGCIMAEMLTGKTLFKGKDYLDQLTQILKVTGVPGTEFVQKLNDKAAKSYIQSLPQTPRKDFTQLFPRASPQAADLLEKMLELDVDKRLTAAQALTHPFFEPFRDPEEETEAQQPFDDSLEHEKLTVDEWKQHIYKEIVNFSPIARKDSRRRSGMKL
# Description: as §4, §2, §5
# CDK5 = CDK5 (Homo sapiens (Human), UniProt Q00535); assay: ICKP protein kinase panel screening; type: biochemical; details: duplicate assays, read-out: mean % residual activity
# Description: as §4, §2, §5
# JNK3 = JNK3 (Homo sapiens (Human), UniProt P53779); assay: ICKP protein kinase panel screening; type: biochemical; details: duplicate assays, read-out: mean % residual activity
# Description: as §4, §2, §5
# p38b MAPK = p38b MAPK (Homo sapiens (Human), UniProt Q15759); assay: ICKP protein kinase panel screening; type: biochemical; details: duplicate assays, read-out: mean % residual activity
# Chain of p38b MAPK (Q15759 whole entry): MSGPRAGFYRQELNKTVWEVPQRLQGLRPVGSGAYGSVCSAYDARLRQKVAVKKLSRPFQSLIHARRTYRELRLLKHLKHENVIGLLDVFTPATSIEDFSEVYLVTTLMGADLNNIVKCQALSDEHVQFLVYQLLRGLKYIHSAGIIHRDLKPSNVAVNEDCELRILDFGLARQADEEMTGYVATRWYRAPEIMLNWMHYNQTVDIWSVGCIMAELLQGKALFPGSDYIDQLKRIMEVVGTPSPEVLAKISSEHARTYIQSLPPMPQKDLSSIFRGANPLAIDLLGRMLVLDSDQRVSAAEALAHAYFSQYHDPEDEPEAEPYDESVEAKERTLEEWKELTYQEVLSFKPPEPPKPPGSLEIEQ
# Description: as §4, §2, §5
# [1] = test system: inflammatory MA (face CFA model); assay: Face Complete Freund's Adjuvant (CFA) model of inflammatory mechanical allodynia; type: in vivo; details: rat, 10 mg/kg intra-peritoneally, 30 min before CFA
structure (smiles),measurement,setting,value
"O=c1[nH]cc(Nc2ccccc2)cc1-c1ccccc1Br [Compound 69, 3-(2-Bromophenyl)-5-(phenylamino)pyridin-2(1H)-one]",remaining activity at 10 µM,CK1δ,98%
same,remaining activity at 10 µM,Lck,108%
same,remaining activity at 10 µM,TBK1,89%
same,remaining activity at 10 µM,VEG-FR,94%
same,remaining activity at 10 µM,EF2K,116%
same,remaining activity at 10 µM,NEK6,102%
same,remaining activity at 10 µM,CAMK1,96%
same,remaining activity at 10 µM,HIPK2,96%
same,remaining activity at 10 µM,SGK1,89%
same,remaining activity at 10 µM,S6K1,87%
same,remaining activity at 10 µM,SYK,79%
same,remaining activity at 10 µM,MLK3,109%
same,remaining activity at 10 µM,GSK3b,105%
same,remaining activity at 10 µM,LKB1,83%
same,remaining activity at 10 µM,EPH-A2,109%
same,remaining activity at 10 µM,BTK,94%
same,remaining activity at 10 µM,HER4,98%
same,remaining activity at 1 µM,CDK2-Cyclin A,119%
same,remaining activity at 1 µM,ERK1,120%
same,remaining activity at 1 µM,ERK8,144%
same,remaining activity at 1 µM,JNK2,103%
same,remaining activity at 1 µM,ERK2,109%
same,remaining activity at 1 µM,p38g MAPK,103%
same,remaining activity at 1 µM,ERK5,101%
same,remaining activity at 1 µM,p38d MAPK,112%
same,remaining activity at 1 µM,CDK5,103%
same,remaining activity at 1 µM,JNK3,115%
same,remaining activity at 1 µM,p38b MAPK,116%
same,"prevention of inflammatory MA (allodynic score), systemic application",[1],completely suppressed
